Tests used:
Format in all cases: cell-based, Staphylococcus aureus
[1] = system: S. aureus rat mutant; assay: TRITON X-100 sensitivity, rat mutant
Procedure: (§1) TRITON® X-100 sensitivity was determined for rat, sarA, and rat-sarA double-mutant strains.
(§2) The effect of TRITON® X-100 on growing cells was determined by diluting cultures grown overnight to an OD650 nm of 0.1 in TSB with varying concentrations of TRITON® X-100. Cells were incubated at 37° C. with shaking and the optical density was recorded hourly for seven to eight hours.
(§3) TRITON® X-100-induced autolysis assays were conducted by diluting cultures grown overnight to an OD650 nm of 0.05 in TSB containing 1 M NaCl. Cells were allowed to grow at 37° C. with shaking until an OD650 nm of 0.7 was reached. Cells were harvested, washed twice with ice cold water and then resuspended in the same volume of 0.05 M Tris-HCl, pH 7.2, containing 0.05% TRITON® X-100. Cells were incubated at 30° C. with shaking and lysis was determined by measuring absorbance at OD600 nm at 30 minutes intervals.

[2] = system: S. aureus rat-sarA double-mutant; assay: TRITON X-100-induced cell lysis, rat-sarA double mutant; conditions: compared with single mutants
Procedure: as §1, §2, §3

[3] = system: S. aureus sarA mutant; assay: TRITON X-100 sensitivity, sarA mutant
Procedure: as §1, §2, §3

[4] = system: wild-type S. aureus; assay: Penicillin sensitivity assay (growth curve, OD650 nm), wild-type strain; conditions: 200 ng/ml (subinhibitory) added at OD650 nm of 0.5, mid-log phase
Procedure: (§4) Rat plays a role in regulating autolytic activity of S. aureus. […] Furthermore, inactivation of the rat locus renders the S. aureus bacteria sensitive to lysis upon growth beyond the mid-log phase. To evaluate whether the cell lysis of the rat mutant was additive to the effect of a subinhibitory concentration of penicillin, 200 ng/ml of penicillin was added to a growing culture of the rat mutant at an OD650 nm of 0.5, corresponding to the mid-log phase. […] This finding is consistent with the additive effect of penicillin upon the lytic propensity of the rat mutant late in the growth cycle. […] In comparison to the parental strain, the rat mutant with subinhibitory concentrations of penicillin has a 3-4 log kill than the parental strain with antibiotics.
(§5) Penicillin sensitivity assays were conducted by diluting rat mutant cultures grown overnight to an OD650 nm of 0.05 in TSB containing the appropriate antibiotics to maintain selection. Cultures were grown at 37° C. with shaking to reach exponential phase (OD650 nm=0.5). Penicillin G was added to a concentration of 0.1 μg/ml. Optical densities at 650 nm were measured every hour for eight to nine hours.

[5] = system: S. aureus rat mutant; assay: Plating of antibiotic-treated cultures on agar plates without antibiotic selection (kill); conditions: subinhibitory concentrations of penicillin; plated on agar without antibiotic selection
Procedure: as §4

[6] = system: S. aureus rat deletion mutant; assay: Penicillin-induced lysis, rat deletion mutant (ACL2530); conditions: 100 μg penicillin (3× MIC)
Procedure: (§6) Similar to the rat transposon mutant, the rat deletion mutant was unable to grow to an OD650 nm of 1.7 (early-stationary).
as §5

[7] = system: S. aureus complemented strain (ACL2531); assay: Penicillin-induced lysis, complemented strain (ACL2531); conditions: 100 μg penicillin (3× MIC)
Procedure: as §6
as §5, with “Penicillin G was added to a concentration of 0.1 μg/ml.” left out

[8] = system: S. aureus rat mutant; assay: Penicillin sensitivity assay (growth curve, OD650 nm), rat mutant; conditions: 200 ng/ml (subinhibitory) added at OD650 nm of 0.5, mid-log phase
Procedure: as §4, §5

| Substance | TRITON X-100 concentration at which sensitivity was displayed [1] [%] | TRITON X-100-induced cell lysis [2] | TRITON X-100 concentration at which sensitivity was displayed [3] [%] | optical density as the growth cycle progressed after addition of penicillin [4] | kill of rat mutant compared with the parental strain with antibiotics [5] | lysis in the presence of penicillin [6] | lysis in the presence of penicillin [7] | optical density as the growth cycle progressed after addition of penicillin [8] |
| --- | --- | --- | --- | --- | --- | --- | --- | --- |
| TRITON® X-100 | ≥ 0.01 | more severe defect | ≥ 0.01 |  |  |  |  |  |
| penicillin |  |  |  | no increase in optical density | 3-4 log | readily lysed | behaved like wild-type | further reduction in optical density |
